Values of other authors as cited in patent US20060100282A1, “Novel diaminopropane-based metal chelators as antiviral agents” (Bioflexis, LLC, priority 2004, published 2006).

How the values were obtained:
HIV-1 integrase (IN) [1] = molecular target: T1, HIV-1 integrase (IN) (Human immunodeficiency virus type 1 group M subtype B, UniProt P12497); conditions: result in words
T1 construct: HIV-1 recombinant IN (HIV-1NL 4-3 Integrase, NIH AIDS Reagent program Catalog No: 2959); purchased NIH AIDS Reagent program 2959

HIV-1 integrase (IN) [2] = molecular target: T1, HIV-1 integrase (IN); conditions: result in words; remark: listed apart in the source

Row | Structure (SMILES) | inhibition of strand transfer reaction (HIV-1 integrase (IN) [1]) | inhibition of 3′ processing (HIV-1 integrase (IN) [2])
1 | O=C(O)C(=O)CC(=O)c1cc(OCc2ccccc2)cc(OCc2ccccc2)c1 [Inhibitor 6] | inhibit strand transfer reaction | do not inhibit 3′ processing
2 | O=C(O)C(=O)CC(=O)c1cccn1Cc1ccc(F)cc1 [Inhibitor 8] | inhibit strand transfer reaction | do not inhibit 3′ processing
